Measured values from patent publication EP0297661B1, “[(Bicyclic heterocyclyl)methyl and -hetero] substituted hexahydro-1H-azepines and pyrrolidines” (JANSSEN PHARMACEUTICA N.V., priority 1987, dated 1989).

test system: compound 48/80-induced lethality; assay: Protection of rats from compound 48/80-induced lethality; type: in vivo; details: Rattus norvegicus; male Wistar rats; test compound subcutaneously or orally (route per compound not stated); one hour later compound 48/80 0.5 mg/kg intravenously; dose protecting 50% of animals, survival after 4 hours; read-out: compound 48/80 lethality test in rats-ED₅₀ in mg/kg body weight
Excerpt: Protection of rats from compound 48/80-induced lethality.
Compound 48/80, a mixture of oligomers obtained by condensation of 4-methoxy-N-methylbenzeneethanamine and formaldehyde has been described as a potent histamine releasing agent (Int. Arch. Allergy, 13, 336 (1958)). The protection from compound 48/80-induced lethal circulatory collapse appears to be simple way of evaluating quantitatively the antihistaminic activity of test compounds. Male rats of an inbred Wistar strain, weighing 240-260 g were used in the experiment. After overnight starvation the rats were transferred to conditioned laboratories (temp. = 21 ± 1°C, relative humidity = 65 ± 5%). The rats were treated subcutaneously or orally with a test compound or with the solvent (NaCl solution, 0.9%). One hour after treatment there was injected intravenously compound 48/80, freshly dissolved in water, at a dose of 0.5 mg/kg (0.2 ml/100 g of body weight). In control experiments, wherein 250 solvent-treated animals were injected with the standard dose of compound 48/80, not more than 2.8% of the animals survived after 4 hours. Survival after 4 hours is therefore considered to be a safe criterion of a protective effect of drug administration. Said ED₅₀-values are the values in mg/kg body weight at which the tested compounds protect 50% of the tested animals against […] lethality.

SMILES	ED50 [mg/kg]
COc1ccc(CCN2CCC(Nc3nc4cccnc4n3Cc3ccccn3)C2)cc1 (centres unmarked) [compound 61]	0.08
CN1CCCC(Nc2nc3cccnc3n2Cc2ccco2)CC1 (centres unmarked) [compound 196, 3-(2-furanylmethyl)-N-(hexahydro-1-methyl-1H-azepin-4-yl)-3H-imidazo[4,5-b]-pyridin-2-amine]	0.02
Cc1ccc(Cn2c(NC3CCN(CCc4c(C)nc5ccccn5c4=O)C3)nc3ccccc32)o1 (centres unmarked) [compound 96]	0.04
COc1ccc(CCN2CCCC(Nc3nc4cccnc4n3Cc3ccc(C)o3)CC2)cc1 (centres unmarked) [compound 68]	0.04
Cc1nc2n(c(=O)c1CCN1CCC(Nc3nc4cccnc4n3Cc3ccccn3)C1)CCCC2 (centres unmarked) [compound 99]	0.04
Fc1ccc(Cn2c(NC3CCN(CCNc4nccs4)C3)nc3ccccc32)cc1 (centres unmarked) [compound 168, 1-[(4-fluorophenyl)methyl]-N[1-[2-(2-thiazolylamino)ethyl]-3-pyrrolidinyl]-1H-benzimidazol-2-amine]	0.08
Fc1ccc(Cn2c(NC3CCN(CCNc4ncccn4)C3)nc3ccccc32)cc1 (centres unmarked) [compound 166, 1-[(4-fluorophenyl)methyl]-N-[1-[-(2-pyrimidinylamino)ethyl]-3-pyrrolidinyl]-1H-benzimidazol-2-amine]	0.08
CC(C)N1CCC(Nc2nc3ccccc3n2Cc2ccc(F)cc2)C1 (centres unmarked) [compound 204, 1-[(4-fluorophenyl)methyl]-N-[1-(1-methylethyl)-3-pyrrolidinyl]-1H-benzimidazol-2-amine]	0.04
Cc1ccc(Cn2c(NC3CCCN(C)CC3)nc3cccnc32)o1 (centres unmarked) [compound 207, N-(hexahydro-1-methyl-1H-azepin-4-yl)-3-[(5-methyl-2-furanyl)methyl]-3H-imidazo[4,5-b]pyridin-2-amine]	0.01
Cc1ccc(Cn2c(NC3CCCN(CCO)CC3)nc3ccccc32)o1 (centres unmarked) [compound 211, hexahydro-4-[[1-[(5-methyl-2-furanyl)methyl]-1H-benzimidazol-2-yl]amino]-1H-azepine-1-ethanol]	0.04
c1coc(Cn2c(NC3CCCNCC3)nc3cccnc32)c1 (centres unmarked) [compound 49, 3-(2-furanylmethyl)-N-(hexahydro-1H-azepin-4-yl)-3H-imidazo[4,5-b]pyridin2-amine]	0.04
Cc1ccc(Cn2c(NC3CCCN(C)CC3)nc3ccccc32)o1 (centres unmarked) [compound 198, N-(hexahydro-1-methyl-1H-azepin-4-yl)-1-[(5-methyl-2-furanyl)methyl]-1H-benzimidazol-2-amine]	0.04
O=c1oc2ccccc2cc1CCN1CCCC(Nc2nc3cccnc3n2Cc2ccco2)CC1 (centres unmarked) [compound 109, 3-[2-[4-[[3-(2-furanylmethyl)-3H-imidazo[4,5-b]pyridin-2-yl]-amino]hexahydro-1H-azepin-1-yl]ethyl]-2H-1-benzopyran-2-one]	0.04
c1csc(Cn2c(NC3CCN(CCNc4nc5cnccc5[nH]4)C3)nc3ccccc32)c1 (centres unmarked) [compound 186]	0.01
Cc1ccc(Cn2c(NC3CCN(CCc4c(C)nc5n(c4=O)CCCC5)C3)nc3ccccc32)o1 (centres unmarked) [compound 102]	0.04
Cc1nc2ccccn2c(=O)c1CCN1CCC(Nc2nc3cccnc3n2Cc2cscn2)C1 (centres unmarked) [compound 95]	0.04
O=c1[nH]c2ccccc2n1CCN1CCC(Nc2nc3ccccc3n2Cc2ccc(F)cc2)C1 (centres unmarked) [compound 125, 1-[2-[3-[[1-[(4-fluorophenyl)methyl]-1H-benzimidazol-2-yl]amino]-1-pyrrolidinyl]ethyl]-1,3-dihydro-2H-benzimidazol-2-one]	0.08
Cc1ccc(Cn2c(NC3CCN(CCNc4nc5cnccc5[nH]4)C3)nc3cccnc32)o1 (centres unmarked) [compound 187, N-[1-[2-[(1H-imidazo[4,5-c]pyridin-2-yl)amino]ethyl]-3-pyrrolidinyl]-3-[(5-methyl-2-furanyl)methyl]-3H-imidazo[4,5-b]pyridin-2-amine]	0.04
Cc1ccc(Cn2c(NC3CCN(CCc4c(C)nc5ccccn5c4=O)C3)nc3cccnc32)o1 (centres unmarked) [compound 94]	0.04
CNC(=O)NCCN1CCC(Nc2nc3ccccc3n2Cc2ccc(F)cc2)C1 (centres unmarked) [compound 188, N-[2-[3-[[1-[(4-fluorophenyl)methyl]-1H-benzimidazol-2-yl]amino]-1-pyrrolidinyl]ethyl]-N′-methylurea]	0.01
